Measurements as given in ChEMBL document CHEMBL5537147, “Development of membrane-targeting TPP+-chloramphenicol conjugates to combat methicillin-resistant staphylococcus aureus (MRSA) infections” (Eur J Med Chem, 2024).

How the values were obtained:
Acinetobacter baumannii [1] = experiment: Antibacterial activity against Acinetobacter baumannii 1309 assessed as inhibition of bacterial growth incubated for 16 to 18 hrs by CLSI based two-fold serial dilution method; assay type: functional; conditions: time 16-18 hrs
Staphylococcus aureus [2] = experiment: Antibacterial activity against methicillin-resistant Staphylococcus aureus USA300 assessed as inhibition of bacterial growth incubated for 16 to 18 hrs by CLSI based two-fold serial dilution method; assay type: functional; conditions: time 16-18 hrs
Staphylococcus aureus [3] = experiment: Antibacterial activity against methicillin-resistant Staphylococcus aureus 3392 assessed as inhibition of bacterial growth incubated for 16 to 18 hrs by CLSI based two-fold serial dilution method; assay type: functional; conditions: time 16-18 hrs
Acinetobacter baumannii [4] = experiment: Antibacterial activity against Acinetobacter baumannii 1310 assessed as inhibition of bacterial growth incubated for 16 to 18 hrs by CLSI based two-fold serial dilution method; assay type: functional; conditions: time 16-18 hrs
Pseudomonas aeruginosa [5] = experiment: Antibacterial activity against Pseudomonas aeruginosa 408 assessed as inhibition of bacterial growth incubated for 16 to 18 hrs by CLSI based two-fold serial dilution method; assay type: functional; conditions: time 16-18 hrs
Staphylococcus aureus [6] = experiment: Antibacterial activity against methicillin-resistant Staphylococcus aureus 3390 assessed as inhibition of bacterial growth incubated for 16 to 18 hrs by CLSI based two-fold serial dilution method; assay type: functional; conditions: time 16-18 hrs
Pseudomonas aeruginosa [7] = experiment: Antibacterial activity against Pseudomonas aeruginosa 535 assessed as inhibition of bacterial growth incubated for 16 to 18 hrs by CLSI based two-fold serial dilution method; assay type: functional; conditions: time 16-18 hrs
[8] = Cytotoxicity against human L02 cells assessed as inhibition of cell growth incubated for 24 hrs by MTT assay; assay type: toxicity, cell-based
Staphylococcus aureus [9] = experiment: Antibacterial activity against methicillin-resistant Staphylococcus aureus 330041 assessed as inhibition of bacterial growth incubated for 16 to 18 hrs by CLSI based two-fold serial dilution method; assay type: functional; conditions: time 16-18 hrs

Row | SMILES | MIC (Acinetobacter baumannii [1]) [µg/mL] | MIC (Staphylococcus aureus [2]) [µg/mL] | MIC (Staphylococcus aureus [3]) [µg/mL] | MIC (Acinetobacter baumannii [4]) [µg/mL] | MIC (Pseudomonas aeruginosa [5]) [µg/mL] | MIC (Staphylococcus aureus [6]) [µg/mL] | MIC (Pseudomonas aeruginosa [7]) [µg/mL] | IC50 at 24 h [8] [µg/mL] | MIC (Staphylococcus aureus [9]) [µg/mL]
1 | Br.O=C(COCCOCCOCC[P+](c1ccc(F)cc1)(c1ccc(F)cc1)c1ccc(F)cc1)OC[C@@H](NC(=O)C(Cl)Cl)[C@@H](O)c1ccc([N+](=O)[O-])cc1 | > 64 | 8 | 8 | > 64 | > 64 | 8 | > 64 | > 64 | 8
2 | Br.O=C(CCCCCn1cc(C[P+](c2ccc(F)cc2)(c2ccc(F)cc2)c2ccc(F)cc2)nn1)OC[C@H](NC(=O)C(Cl)Cl)[C@H](O)c1ccc([N+](=O)[O-])cc1 | > 64 | 16 | 16 | > 64 | > 64 | 16 | > 64 | > 64 | 16
3 | Br.O=C(CCC[P+](c1ccccc1)(c1ccccc1)c1ccccc1)OC[C@H](NC(=O)C(Cl)Cl)[C@H](O)c1ccc([N+](=O)[O-])cc1 | > 64 | 16 | 32 | > 64 | > 64 | 32 | > 64 | > 64 | 32
4 | Br.O=C(CCCCCCCCC[P+](c1ccccc1)(c1ccccc1)c1ccccc1)O[C@H](c1ccc([N+](=O)[O-])cc1)[C@H](CO)NC(=O)C(Cl)Cl | > 64 | 1 | 2 | > 64 | > 64 | 1 | > 64 | < 32 | 1
5 | O=C(O)CCCCCCCCC[P+](c1ccccc1)(c1ccccc1)c1ccccc1.[Br-] | > 64 | > 64 | > 64 | > 64 | > 64 | > 64 | > 64 | > 64 | > 64
6 | O=C(O)CCCCCCC[P+](c1ccccc1)(c1ccccc1)c1ccccc1.[Br-] | > 64 | > 64 | > 64 | > 64 | > 64 | > 64 | > 64 | > 64 | > 64
7 | CN(C)c1ccc([P+](CCCCCCCCCC(=O)O)(c2ccc(N(C)C)cc2)c2ccc(N(C)C)cc2)cc1.[Br-] | 32 | 4 | 16 | 32 | 16 | 8 | 32 | 2.1 | 8
8 | O=C(O)c1cn(C2CC2)c2cc(N3CCNCC3)c(F)cc2c1=O [CIPROFLOXACIN] |  |  |  |  |  |  |  | > 64 | 
9 | Br.O=C(CC[P+](c1ccccc1)(c1ccccc1)c1ccccc1)OC[C@H](NC(=O)C(Cl)Cl)[C@H](O)c1ccc([N+](=O)[O-])cc1 | > 64 | > 64 | > 64 | > 64 | > 64 | > 64 | > 64 | > 64 | > 64
10 | Br.O=C(CCCCCCCCC[P+](c1cccc(F)c1)(c1cccc(F)c1)c1cccc(F)c1)OC[C@H](NC(=O)C(Cl)Cl)[C@H](O)c1ccc([N+](=O)[O-])cc1 | > 64 | 1 | 1 | > 64 | > 64 | 1 | > 64 | 28.7 | 1
11 | Br.COc1cccc([P+](CCCCCCCCCC(=O)OC[C@H](NC(=O)C(Cl)Cl)[C@H](O)c2ccc([N+](=O)[O-])cc2)(c2cccc(OC)c2)c2cccc(OC)c2)c1 | > 64 | 1 | 1 | > 64 | 4 | 2 | 16 | 21.7 | 1
12 | Br.O=C(CCCCCCCCC[P+](c1ccc(Cl)cc1)(c1ccc(Cl)cc1)c1ccc(Cl)cc1)OC[C@H](NC(=O)C(Cl)Cl)[C@H](O)c1ccc([N+](=O)[O-])cc1 | > 64 | 0.5 | 0.5 | > 64 | > 64 | 0.5 | > 64 | 16.4 | 0.5
13 | Br.O=C(CCCCCCCCCCCCCCCCC[P+](c1ccccc1)(c1ccccc1)c1ccccc1)OC[C@H](NC(=O)C(Cl)Cl)[C@H](O)c1ccc([N+](=O)[O-])cc1 | > 64 | 2 | 2 | > 64 | > 64 | 2 | > 64 | 7.9 | 2
14 | COc1ccc([P+](CCCCCCCCCC(=O)O)(c2ccc(OC)cc2)c2ccc(OC)cc2)cc1.[Br-] | 64 | 32 | 32 | 64 | > 64 | 16 | > 64 | 13.5 | 32
15 | O=C(O)CCCC[P+](c1ccccc1)(c1ccccc1)c1ccccc1.[Br-] | > 64 | > 64 | > 64 | > 64 | > 64 | > 64 | > 64 | > 64 | > 64
16 | Br.CN(C)c1ccc([P+](CCCCCCCCCC(=O)OC[C@H](NC(=O)C(Cl)Cl)[C@H](O)c2ccc([N+](=O)[O-])cc2)(c2ccc(N(C)C)cc2)c2ccc(N(C)C)cc2)cc1 | 16 | 1 | 1 | 32 | 4 | 1 | 16 | 12.4 | 1
17 | O=C(O)CCCCCn1cc(C[P+](c2ccc(F)cc2)(c2ccc(F)cc2)c2ccc(F)cc2)nn1.[Br-] | > 64 | > 64 | > 64 | > 64 | > 64 | > 64 | > 64 | > 64 | > 64
18 | Br.O=C(CCCC[P+](c1ccccc1)(c1ccccc1)c1ccccc1)OC[C@H](NC(=O)C(Cl)Cl)[C@H](O)c1ccc([N+](=O)[O-])cc1 | > 64 | 8 | 8 | > 64 | > 64 | 8 | > 64 | > 64 | 16
19 | Cc1ccc([P+](CCCCCCCCCC(=O)O)(c2ccc(C)cc2)c2ccc(C)cc2)cc1.[Br-] | > 64 | > 64 | > 64 | > 64 | > 64 | > 64 | > 64 | 23.1 | > 64
20 | O=C(O)CCCCCCCCCCCCCCCCC[P+](c1ccccc1)(c1ccccc1)c1ccccc1.[Br-] | > 64 | > 64 | > 64 | > 64 | > 64 | > 64 | > 64 | > 64 | > 64
